Test results reported in ChEMBL document CHEMBL1150045, “Callyspongenols A-C, new cytotoxic C22-polyacetylenic alcohols from a red sea sponge, Callyspongia species” (J Nat Prod, 2003).
Converted amounts (≈) assume the structure as drawn.

Assays:
P388 = assay: Cytotoxicity against mouse P388 cells; assay type: functional, cell-based
HeLa = assay: Cytotoxicity against human HeLa cells; assay type: functional, cell-based

| Compound | IC50 (P388) [µg/mL] | IC50 (HeLa) [µg/mL] |
| --- | --- | --- |
| C#C/C=C\CCCCC#CCCCCC#CCCCC#CCO | 2.2 (≈ 7.13 µM) | 4.5 (≈ 14.6 µM) |
| C#C/C=C\CCCCCCC#CC#CCCC/C=C\C#CCO [CALLYSPONGENOL B] | 10 (≈ 32.6 µM) | 10 (≈ 32.6 µM) |
| C#C/C=C\CCCC/C=C\C#CC#CCCC/C=C\C#CCO [CALLYSPONGENOL C] | 2.2 (≈ 7.23 µM) | 3.9 (≈ 12.8 µM) |
| C#C/C=C\CCCCC#CC#CC#CCCC/C=C\C#CCO [DEHYDROISOPHONOCHALYNOL] | 2.2 (≈ 7.27 µM) | 5.1 (≈ 16.9 µM) |
| COc1cccc2c1C(=O)c1c(O)c3c(c(O)c1C2=O)C[C@@](O)(C(=O)CO)C[C@@H]3O[C@H]1C[C@H](N)[C@H](O)[C@H](C)O1 [DOXORUBICIN] | 0.04 (≈ 0.0736 µM) | 0.066 (≈ 0.121 µM) |
